Experimental data taken from patent US20250228807A1, “TRANEXAMIC CLASS ARGININE AND HISTIDINE MIMICS AS THERAPEUTIC AGENTS” (Tranexamic Technologies, LLC, priority 2022, published 2025).
Entries after “also recorded” stand apart in the source; their conditions may differ.

Experiments:
[1] = tested on: programmed death-ligand 1 (PD-L1); experiment: Immunoblot analysis of treated MDA-MB-468 cells: PD-L1 expression; type: cell-based; conditions: high (2%) concentration
Excerpt: (§1) Biochemical evaluation of treatment of breast cancer cells with TA-R2. […] This is important because PD-L1 expression in cancer cells blocks T-cell-based immunity. So, TA-R2 would be predicted to increase anticancer immunity in immunocompetent systems. Histone acetyltransferase (HAT) enzyme assays were used to determine if TA-R2 inhibits p300 activity. […] This fits with the hypothesis that TAs act in part by inhibiting acetyltransferases such as p300/CPB that acetylate histones. No acetylation is observed in controls upon omission of H3/p300 or acetyl coenzyme A (Acetyl CoA).

[2] = Aqueous solubility / preparation of solutions in PBS buffer; type: physicochemical; conditions: for solubility: concentration of solution: PBS buffer
Procedure: Chemical synthesis and solubility. TA was purchased from commercial sources and TA-NAc was prepared straightforwardly through acetylation of TA based on standard practices.
TA-R1-R4 were accessible from their corresponding amino acids through treatment with methylisothiourea hemisulfate. […] Esterification of TA-R1 to produce TA-R1OMe, a novel compound, improved the solubility for preparation of a 2% (w/v) solution in phosphate buffered saline (PBS) buffer (pH=7.4) and biological testing.
The requisite amino acids for synthesis of TA-R3/R4 required multistep synthetic approaches. Briefly, the preparation of TA-R3, a novel compound, began from cis-1,3-cyclohexanedicarboxylic acid and proceeded through eight sequential synthetic steps to afford the product as its HCl salt. Protection/deprotection of the amino group was required to facilitate purification, as was a stepwise oxidation sequence from the alcohol to the carboxylic acid. […] The approach to TA-R4, a known compound, required one additional step to produce the starting dicarboxylic acid, in this case through oxidative cleavage of norbornene. […] All the final compounds were fully characterized by ^1H nuclear magnetic resonance (NMR), ^13C NMR, and high-resolution electrospray ionization mass spectrometry (HRMS-ESI).

recombinant p300 = target: T1, recombinant p300 (Homo sapiens, UniProt Q09472); experiment: p300 histone acetyltransferase (HAT) enzyme assay; type: biochemical; conditions: for p300 acetylation of Histone 3 (H3) in vitro: recombinant p300, Histone H3, tritiated acetyl CoA, TA at 2%
T1 construct: purchased
Procedure: Inhibition of p300 acetyltransferase activity. p300 enzyme assays were carried out with TA, TA-NAc, and TA-R2 using commercially available recombinant p300, and recombinant, commercial Histone H3 and tritiated acetyl CoA as the substrates. P300 assays were performed in the presence of increasing concentrations of each compound and acetylation of […] was evaluated by scintillation counting of Histone H3 adsorbed to 1 cm×1 cm nitrocellulose squares, after extensive washing of the nitrocellulose squares with 20% trichloroacetic acid.
as §1

MYC oncogene = experiment: Immunoblot analysis of treated MDA-MB-468 cells: MYC expression; type: cell-based
Excerpt: as §1

[3] = tested on: MDA-MB 468 triple-negative breast cancer cells; experiment: MTT cell viability assay; type: cell-based; conditions: MDA-MB-468, 72 h, relative to TA
Procedure: Effects of compounds on cell viability. MDA-MB 468 triple-negative breast cancer cells were plated at 6,250 cells per well in a 96-well plate and incubated overnight at 37° C. Cell viability was evaluated using the MTT (3-(4,5-dimethylthiazol-2-yl)-2,5-diphenyltetrazolium bromide) assay carried out according to manufacturer's instructions.

T1 sequence (Q09472 whole entry, species assumed): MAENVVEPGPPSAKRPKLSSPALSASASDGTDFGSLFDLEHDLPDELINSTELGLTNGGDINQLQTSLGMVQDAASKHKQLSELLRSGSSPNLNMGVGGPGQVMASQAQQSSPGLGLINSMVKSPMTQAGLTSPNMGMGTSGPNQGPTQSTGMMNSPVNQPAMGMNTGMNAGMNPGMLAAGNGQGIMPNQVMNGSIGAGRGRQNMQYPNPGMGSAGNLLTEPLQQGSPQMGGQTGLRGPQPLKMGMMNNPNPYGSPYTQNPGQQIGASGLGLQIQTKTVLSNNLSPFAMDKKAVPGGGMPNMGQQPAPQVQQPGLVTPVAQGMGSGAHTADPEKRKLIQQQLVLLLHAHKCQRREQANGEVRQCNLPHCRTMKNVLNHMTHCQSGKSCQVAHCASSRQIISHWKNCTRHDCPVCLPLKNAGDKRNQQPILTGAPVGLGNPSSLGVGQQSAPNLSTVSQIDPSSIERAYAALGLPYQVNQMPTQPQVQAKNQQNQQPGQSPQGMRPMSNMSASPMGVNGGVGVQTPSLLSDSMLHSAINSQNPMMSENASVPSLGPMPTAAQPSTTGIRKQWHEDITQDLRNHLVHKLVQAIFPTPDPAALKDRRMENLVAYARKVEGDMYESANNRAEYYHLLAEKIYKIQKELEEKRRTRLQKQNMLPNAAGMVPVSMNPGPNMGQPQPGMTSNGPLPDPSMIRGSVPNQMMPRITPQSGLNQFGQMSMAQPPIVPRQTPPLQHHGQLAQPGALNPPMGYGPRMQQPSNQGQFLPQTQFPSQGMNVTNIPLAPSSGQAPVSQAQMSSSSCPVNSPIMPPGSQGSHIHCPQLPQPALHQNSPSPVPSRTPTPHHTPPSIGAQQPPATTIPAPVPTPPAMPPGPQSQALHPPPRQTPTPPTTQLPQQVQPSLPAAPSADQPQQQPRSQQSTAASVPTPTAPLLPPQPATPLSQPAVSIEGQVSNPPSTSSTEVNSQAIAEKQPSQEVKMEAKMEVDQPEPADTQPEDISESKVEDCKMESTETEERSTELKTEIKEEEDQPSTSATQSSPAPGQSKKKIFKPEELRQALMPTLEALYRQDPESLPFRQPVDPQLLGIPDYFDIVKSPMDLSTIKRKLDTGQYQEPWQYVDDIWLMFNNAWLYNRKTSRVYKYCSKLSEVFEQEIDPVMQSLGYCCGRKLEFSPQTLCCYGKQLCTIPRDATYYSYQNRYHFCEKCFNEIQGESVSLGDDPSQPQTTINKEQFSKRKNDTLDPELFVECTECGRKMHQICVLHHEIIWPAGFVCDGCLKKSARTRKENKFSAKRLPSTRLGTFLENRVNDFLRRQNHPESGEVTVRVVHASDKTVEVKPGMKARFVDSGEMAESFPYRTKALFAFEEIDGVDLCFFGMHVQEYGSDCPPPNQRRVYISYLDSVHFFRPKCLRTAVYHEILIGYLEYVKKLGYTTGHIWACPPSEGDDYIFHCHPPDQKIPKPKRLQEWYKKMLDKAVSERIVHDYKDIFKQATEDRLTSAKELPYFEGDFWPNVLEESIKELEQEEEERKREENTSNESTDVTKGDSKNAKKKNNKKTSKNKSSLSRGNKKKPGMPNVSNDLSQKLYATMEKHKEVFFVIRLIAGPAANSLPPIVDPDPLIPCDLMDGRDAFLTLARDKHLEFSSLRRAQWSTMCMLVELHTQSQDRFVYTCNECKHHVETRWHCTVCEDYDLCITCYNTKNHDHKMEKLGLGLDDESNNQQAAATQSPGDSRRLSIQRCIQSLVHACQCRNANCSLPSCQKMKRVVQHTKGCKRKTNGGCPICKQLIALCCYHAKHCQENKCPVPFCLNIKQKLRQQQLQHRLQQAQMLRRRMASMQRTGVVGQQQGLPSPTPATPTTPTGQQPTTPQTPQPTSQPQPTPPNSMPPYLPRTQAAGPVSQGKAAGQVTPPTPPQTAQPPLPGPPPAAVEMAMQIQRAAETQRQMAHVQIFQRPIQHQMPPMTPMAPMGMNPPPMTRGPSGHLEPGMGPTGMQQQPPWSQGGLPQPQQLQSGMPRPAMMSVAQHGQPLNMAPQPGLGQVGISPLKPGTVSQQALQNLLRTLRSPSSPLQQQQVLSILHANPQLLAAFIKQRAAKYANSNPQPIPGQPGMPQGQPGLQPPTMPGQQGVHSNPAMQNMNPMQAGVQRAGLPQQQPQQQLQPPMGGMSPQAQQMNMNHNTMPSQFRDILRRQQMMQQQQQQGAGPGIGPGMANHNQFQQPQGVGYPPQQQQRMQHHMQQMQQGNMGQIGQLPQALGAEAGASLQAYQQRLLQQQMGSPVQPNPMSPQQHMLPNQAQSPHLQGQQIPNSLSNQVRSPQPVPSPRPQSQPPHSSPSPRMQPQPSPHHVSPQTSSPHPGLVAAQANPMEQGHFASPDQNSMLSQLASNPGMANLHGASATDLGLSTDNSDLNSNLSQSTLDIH

SMILES	PD-L1 expression [1]	aqueous solubility (in words) [2]	fold lower IC50 than TA (cytotoxicity) [3]	solubility: concentration of solution [2]	also measured
CC(=O)NCC1CCC(C(=O)[O-])CC1.[Na+] (stereo not drawn) [TA-NAc, reference compound]	do not	better aqueous solubility			
N=C(N)NC[C@H]1CC[C@H](C(=O)O)CC1 [TA-R1, trans-4-guanidinomethylcyclohexanecarboxylic acid]		poor aqueous solubility			
Cl.N=C(N)N[C@H]1CC[C@H](C(=O)O)CC1 [TA-R2, amino(((1r,4r)-4-carboxycyclohexyl)amino)methaniminium chloride]	decreases programmed death-ligand 1 (PD-L1)	good aqueous solubility			histone acetylation at 2% (w/v) compared with TA (recombinant p300; 2% (w/v)): reduced histone acetylation to a greater extent than TA; p300 acetylation of Histone 3 (H3) in vitro (recombinant p300): decreases histone acetylation more strongly than the other two compounds; expression of the MYC oncogene at 0.5% (MYC oncogene; 0.5%): downregulated MYC; expression of the MYC oncogene at 2% (w/v) (MYC oncogene; 2% (w/v), compared with TA): downregulated expression of the MYC oncogene; expression of the MYC oncogene (MYC oncogene; compared with TA and TA-NAc at the same concentrations): decreases expression of the MYC oncogene to a greater extent than TA or NAc-TA
Cl.N=C(N)NC[C@H]1CCC[C@@H](C(=O)O)C1 (relative stereo) [TA-R3, cis-amino(((3-carboxycyclohexyl)methyl)amino)methaniminium chloride]		insolubility; also recorded: poor aqueous solubility	approximately 10 fold	~0.1%	
COC(=O)[C@@H]1CCC[C@H](CNC(=N)N)C1.Cl (relative stereo) [TA-R3-OMe, cis-amino(((3 (methoxycarbonyl)cyclohexyl)methyl)amino)methaniminium chloride]			approximately 10 fold	ca. 2%	
NC[C@H]1CC[C@H](C(=O)O)CC1 [TA, Tranexamic acid, reference compound]	do not				p300 acetylation of Histone 3 (H3) in vitro (recombinant p300): does not affect
N=C(N)NC[C@@H]1CC[C@H](C(=O)O)C1 (relative stereo) [TA-R4, cis-3-(guanidinomethyl)cyclopentane-1-carboxylic acid]		sufficient solubility		ca. 2%	
COC(=O)[C@H]1CC[C@H](CNC(=N)N)CC1.Cl [TA-R1-OMe, amino((((1r,4r)-4-(methoxycarbonyl)cyclohexyl)methyl)amino)methaniminium chloride]			approximately 10 fold		solubility: concentration of solution prepared ([2]; phosphate buffered saline (PBS) buffer (pH=7.4)): 2 % (w/v)
